Experimental data from US20260232767A1, “INTERLEUKIN-23 RECEPTOR ANTAGONIST PEPTIDES FOR USE IN THE TREATMENT OF PSORIASIS” (Janssen Pharmaceutica NV, priority 2023, published 2026).

System: subjects with moderate-to-severe plaque psoriasis
Assay: Safety, adverse events, Example 2 through Week 56
Assay type: in vivo, human
Settings: through Week 56; for Subjects with 1 or more Serious adverse events: Tonsillar hypertrophy / Subjects with 1 or more Serious adverse events: Uterine leiomyoma / Subjects with 1 or more Serious adverse events: Ventricular dysfunction / Subjects with 1 or more treatment-emergent adverse events leading to discontinuation of study agent / Subjects with 1 or more Adverse events / Subjects with 1 or more Adverse events: Alanine aminotransferase increased / Subjects with 1 or more Adverse events: Arthralgia / Subjects with 1 or more Adverse events: Aspartate aminotransferase increased / Subjects with 1 or more Adverse events: Bronchitis / Subjects with 1 or more Adverse events: COVID-19 / Subjects with 1 or more Adverse events: Cough / Subjects with 1 or more Adverse events: Diarrhea / Subjects with 1 or more Adverse events: Headache / Subjects with 1 or more Adverse events: Influenza / Subjects with 1 or more Adverse events: Nasopharyngitis / Subjects with 1 or more Adverse events: Upper respiratory tract infection / Subjects with 1 or more Adverse events: Urinary tract infection / Subjects with 1 or more Serious adverse events / Subjects with 1 or more Serious adverse events: COVID-19 / Subjects with 1 or more Serious adverse events: Cerebrovascular accident / Subjects with 1 or more Serious adverse events: Coronary artery disease / Subjects with 1 or more Serious adverse events: Diverticulitis / Subjects with 1 or more Serious adverse events: Foot deformity / Subjects with 1 or more Serious adverse events: Infected cyst / Subjects with 1 or more Serious adverse events: Intervertebral disc protrusion / Subjects with 1 or more Serious adverse events: Ligament injury / Subjects with 1 or more Serious adverse events: Non-cardiac chest pain / Subjects with 1 or more Serious adverse events: Suicide attempt: number of subjects
Source text: The LTE safety analysis was based on randomized participants in Example who entered the present long-term extension study and received at least one dose of study intervention (including a partial dose) during the study period.

[1] = Placebo → 100 mg QD after crossover

CC(=O)NCCCC[C@@H]1NC(=O)[C@H](Cc2c[nH]c3c(C)cccc23)NC(=O)[C@H]([C@@H](C)O)NC(=O)[C@H](CC(N)=O)NC(=O)[C@@H](NC(C)=O)C(C)(C)SSC(C)(C)[C@@H](C(=O)N[C@@H](Cc2ccc(OCCN)cc2)C(=O)N[C@@H](Cc2ccc3ccccc3c2)C(=O)NC2(C(=O)N[C@@H](CCC(=O)O)C(=O)N[C@@H](CC(N)=O)C(=O)N[C@@H](Cc3cccnc3)C(=O)N(C)CC(N)=O)CCOCC2)NC1=O [IL-23 receptor antagonist peptide, Ac-[Pen]*-N-T-[W(7-Me)]-[Lys(Ac)]-[Pen]*-Phe[4-(2-aminoethoxy)]-[2-Nal]-[THP]-E-N-[3-Pal]-Sarc-NH2 (*[Pen]-[Pen]* formdisulfidebond)]
11: Subjects with 1 or more Adverse events: Nasopharyngitis (100 mg QD) | Subjects with 1 or more Adverse events: Diarrhea (Combined) | Subjects with 1 or more Serious adverse events (Combined)
2: Subjects with 1 or more treatment-emergent adverse events leading to discontinuation of study agent (50 mg QD) | Subjects with 1 or more Adverse events: Arthralgia (100 mg BID) | Subjects with 1 or more Adverse events: Cough (100 mg BID) | Subjects with 1 or more Adverse events: Urinary tract infection (100 mg BID) | Subjects with 1 or more Adverse events: Upper respiratory tract infection (100 mg QD) | Subjects with 1 or more treatment-emergent adverse events leading to discontinuation of study agent (100 mg QD) | Subjects with 1 or more Adverse events: Alanine aminotransferase increased [1] | Subjects with 1 or more Adverse events: COVID-19 [1] | Subjects with 1 or more Adverse events: Urinary tract infection [1]
35: Subjects with 1 or more Adverse events: COVID-19 (Combined)
12: Subjects with 1 or more Adverse events: Headache (Combined)
4: Subjects with 1 or more Adverse events: Alanine aminotransferase increased (100 mg BID) | Subjects with 1 or more Adverse events: Upper respiratory tract infection [1]
32: Subjects with 1 or more Adverse events (100 mg BID)
5: Subjects with 1 or more Adverse events: Nasopharyngitis (100 mg BID) | Subjects with 1 or more Adverse events: Upper respiratory tract infection (100 mg BID) | Subjects with 1 or more Adverse events: COVID-19 (100 mg QD) | Subjects with 1 or more Adverse events: Headache (100 mg QD)
31: Subjects with 1 or more Adverse events (100 mg QD)
23: Subjects with 1 or more Adverse events [1]
3: Subjects with 1 or more Adverse events: Aspartate aminotransferase increased (100 mg BID) | Subjects with 1 or more Adverse events: Arthralgia (100 mg QD) | Subjects with 1 or more Adverse events: Cough (100 mg QD) | Subjects with 1 or more Serious adverse events (100 mg QD)
8: Subjects with 1 or more Adverse events: Arthralgia (Combined) | Subjects with 1 or more Adverse events: Cough (Combined) | Subjects with 1 or more Adverse events: Urinary tract infection (Combined)
49: Subjects with 1 or more Adverse events: Nasopharyngitis (Combined)
174: Subjects with 1 or more Adverse events (Combined)
7: Subjects with 1 or more Adverse events: COVID-19 (100 mg BID) | Subjects with 1 or more Adverse events: Aspartate aminotransferase increased (Combined) | Subjects with 1 or more Adverse events: Influenza (Combined)
1: Subjects with 1 or more Adverse events: Diarrhea (100 mg BID) | Subjects with 1 or more Adverse events: Headache (100 mg BID) | Subjects with 1 or more Adverse events: Influenza (100 mg BID) | Subjects with 1 or more Serious adverse events (100 mg BID) | Subjects with 1 or more Serious adverse events: Uterine leiomyoma (100 mg BID) | Subjects with 1 or more treatment-emergent adverse events leading to discontinuation of study agent (100 mg BID) | Subjects with 1 or more Adverse events: Diarrhea (100 mg QD) | Subjects with 1 or more Adverse events: Influenza (100 mg QD) | Subjects with 1 or more Serious adverse events: COVID-19 (100 mg QD) | Subjects with 1 or more Serious adverse events: Diverticulitis (100 mg QD) | Subjects with 1 or more Serious adverse events: Intervertebral disc protrusion (100 mg QD) | Subjects with 1 or more Serious adverse events: Suicide attempt (100 mg QD) | Subjects with 1 or more Serious adverse events: COVID-19 (Combined) | Subjects with 1 or more Serious adverse events: Cerebrovascular accident (Combined) | Subjects with 1 or more Serious adverse events: Coronary artery disease (Combined) | Subjects with 1 or more Serious adverse events: Diverticulitis (Combined) | Subjects with 1 or more Serious adverse events: Foot deformity (Combined) | Subjects with 1 or more Serious adverse events: Infected cyst (Combined) | Subjects with 1 or more Serious adverse events: Intervertebral disc protrusion (Combined) | Subjects with 1 or more Serious adverse events: Ligament injury (Combined) | Subjects with 1 or more Serious adverse events: Non-cardiac chest pain (Combined) | Subjects with 1 or more Serious adverse events: Suicide attempt (Combined) | Subjects with 1 or more Serious adverse events: Tonsillar hypertrophy (Combined) | Subjects with 1 or more Serious adverse events: Uterine leiomyoma (Combined) | Subjects with 1 or more Serious adverse events: Ventricular dysfunction (Combined) | Subjects with 1 or more Adverse events: Arthralgia [1] | Subjects with 1 or more Adverse events: Aspartate aminotransferase increased [1] | Subjects with 1 or more Adverse events: Bronchitis [1] | Subjects with 1 or more Adverse events: Diarrhea [1] | Subjects with 1 or more Adverse events: Influenza [1] | Subjects with 1 or more Serious adverse events [1] | Subjects with 1 or more Serious adverse events: Cerebrovascular accident [1]
9: Subjects with 1 or more Adverse events: Alanine aminotransferase increased (Combined) | Subjects with 1 or more Adverse events: Bronchitis (Combined) | Subjects with 1 or more Adverse events: Nasopharyngitis [1]
(11.6%): Subjects with Headache
24: Subjects with 1 or more Adverse events: Upper respiratory tract infection (Combined)
10: Subjects with 1 or more treatment-emergent adverse events leading to discontinuation of study agent (Combined)
0: Subjects with 1 or more Serious adverse events: Tonsillar hypertrophy (50 mg QD) | Subjects with 1 or more Serious adverse events: Uterine leiomyoma (50 mg QD) | Subjects with 1 or more Serious adverse events: Ventricular dysfunction (50 mg QD) | Subjects with 1 or more Adverse events: Bronchitis (100 mg BID) | Subjects with 1 or more Serious adverse events: COVID-19 (100 mg BID) | Subjects with 1 or more Serious adverse events: Cerebrovascular accident (100 mg BID) | Subjects with 1 or more Serious adverse events: Coronary artery disease (100 mg BID) | Subjects with 1 or more Serious adverse events: Diverticulitis (100 mg BID) | Subjects with 1 or more Serious adverse events: Foot deformity (100 mg BID) | Subjects with 1 or more Serious adverse events: Infected cyst (100 mg BID) | Subjects with 1 or more Serious adverse events: Intervertebral disc protrusion (100 mg BID) | Subjects with 1 or more Serious adverse events: Ligament injury (100 mg BID) | Subjects with 1 or more Serious adverse events: Non-cardiac chest pain (100 mg BID) | Subjects with 1 or more Serious adverse events: Suicide attempt (100 mg BID) | Subjects with 1 or more Serious adverse events: Tonsillar hypertrophy (100 mg BID) | Subjects with 1 or more Serious adverse events: Ventricular dysfunction (100 mg BID) | Subjects with 1 or more Adverse events: Alanine aminotransferase increased (100 mg QD) | Subjects with 1 or more Adverse events: Aspartate aminotransferase increased (100 mg QD) | Subjects with 1 or more Adverse events: Bronchitis (100 mg QD) | Subjects with 1 or more Adverse events: Urinary tract infection (100 mg QD) | Subjects with 1 or more Serious adverse events: Cerebrovascular accident (100 mg QD) | Subjects with 1 or more Serious adverse events: Coronary artery disease (100 mg QD) | Subjects with 1 or more Serious adverse events: Foot deformity (100 mg QD) | Subjects with 1 or more Serious adverse events: Infected cyst (100 mg QD) | Subjects with 1 or more Serious adverse events: Ligament injury (100 mg QD) | Subjects with 1 or more Serious adverse events: Non-cardiac chest pain (100 mg QD) | Subjects with 1 or more Serious adverse events: Tonsillar hypertrophy (100 mg QD) | Subjects with 1 or more Serious adverse events: Uterine leiomyoma (100 mg QD) | Subjects with 1 or more Serious adverse events: Ventricular dysfunction (100 mg QD) | Subjects with 1 or more Adverse events: Cough [1] | Subjects with 1 or more Adverse events: Headache [1] | Subjects with 1 or more Serious adverse events: COVID-19 [1] | Subjects with 1 or more Serious adverse events: Coronary artery disease [1] | Subjects with 1 or more Serious adverse events: Diverticulitis [1] | Subjects with 1 or more Serious adverse events: Foot deformity [1] | Subjects with 1 or more Serious adverse events: Infected cyst [1] | Subjects with 1 or more Serious adverse events: Intervertebral disc protrusion [1] | Subjects with 1 or more Serious adverse events: Ligament injury [1] | Subjects with 1 or more Serious adverse events: Non-cardiac chest pain [1] | Subjects with 1 or more Serious adverse events: Suicide attempt [1] | Subjects with 1 or more Serious adverse events: Tonsillar hypertrophy [1] | Subjects with 1 or more Serious adverse events: Uterine leiomyoma [1] | Subjects with 1 or more Serious adverse events: Ventricular dysfunction [1] | Subjects with 1 or more treatment-emergent adverse events leading to discontinuation of study agent [1] | Subjects with Abdominal distension | Subjects with Abscess limb | Subjects with Constipation
(16.7%): Subjects with Gastrointestinal disorders (system organ class)
